Test results taken from patent publication US20170158735A1, “METHOD FOR PRODUCING A RECOMBINANT PEPTIDE AND RESULTANT PEPTIDE” ("IVIX" Ltd., priority 2012, published 2017).
Ends that are not written are not given here.

Test system: sexual behavior of female rats
Assay: Lordosis test: sexual behavior of ovariectomized hormonally stimulated female rats with a sexually active male
Assay type: in vivo, rat
Settings: for Percentage of lordoses / Number of acts of proceptive behavior: ovariectomized hormonally stimulated female rats, progesterone 0.5 mg/rat, test product 100 μg/rat; for Percentage of lordoses: negative control 0.73 ± 0.12; for Effect on sexual motivation / reproductive- and sexual-function stimulating activity (in words): lordosis model, female rats, 100 μg/rat; for Number of acts of proceptive behavior: negative control 14 ± 4
Method: Sexual behavior was recorded in ovariectomized hormonally stimulated females in direct contact with the sexually active male, or when such a contact was impossible. […]
Sexual behavior was recorded in ovariectomized hormonally stimulated females in direct contact with the sexually active male, or when such a contact was impossible.

Row | Substance | Percentage of lordoses (Table 5 / Example 9) | Effect on sexual motivation / reproductive- and sexual-function stimulating activity (in words) | Percentage of lordoses (Table 4 / Example 8) | Number of acts of proceptive behavior (Table 4 / Example 8) [acts]
1 | TKPRPF | 0.94 ± 0.14 | intensification of sexual motivation |  | 
2 | Thr-Lys-Pro (TKP) | 0.96 ± 0.12 | intensification of sexual motivation | 0.97±0.12 | 29±6
3 | Pro-Arg-Pro-Gly-Pro (PRPGP) |  |  | 0.73 ± 0.14 | 14 ± 6
4 | Thr-Lys-Pro-Arg-Pro (TKPRP) | 0.99 ± 0.09 | intensification of sexual motivation |  | 
5 | Thr-Lys-Pro-Phe (TKPF) |  | lack of sexual motivation effect |  | 
6 | Pro-Gly-Pro (PGP) |  |  | 0.74 ± 0.09 | 13 ± 5
7 | Arg-Pro-Gly-Pro (RPGP) |  |  | 0.69 ± 0.14 | 15 ± 4
8 | Thr-Lys-Pro-Arg (TKPR) |  | lack of sexual motivation effect |  | 
